This experiment relates to explants of adipose tissues. Kind of experiment: Assay of lipolytic activity: free fatty acids released into the culture medium from adipose tissue explants kept alive. Type of experiment: cell-based. As to conditions: caffeine at a concentration of 0.01% (100 μg/ml).

Entries after “also recorded” stand apart in the source; their conditions may differ.

Description: The different extracts are incorporated into the culture medium under the conditions described below.
After a contact time of 8 days, the activity is evaluated by assaying the fatty acids released into the culture medium.
Preparation of 9 explants of adipose tissues and keeping them alive in BEM (BIO-EC's Explants Medium)
Division of the explants into 3 batches of 3 explants: • a reference batch, in the presence of the culture medium • a batch treated with caffeine as a positive reference • a batch treated with an extract according to the invention
At D0 the explants are kept alive in 2 ml of culture medium in which the test extract is incorporated.
This treatment is repeated at D2, D4 and D6.
At D2, D4, D6 and D8 the culture medium is sampled. For each explant the media sampled at D2, D4, D6 and D8 are combined in the same tube and stored at −20° C. for assaying the fatty acids present in the medium.
After extraction of the culture medium, the free fatty acids present therein are separated off and assayed by high performance thin layer chromatography.
The lipolytic activity is evaluated by determining the proportions of free fatty acids released into the culture medium.

As for `Cn1c(=O)c2c(ncn2C)n(C)c1=O` [Caffeine, caffeine], the lipolytic effect result was “no longer having a lipolytic effect; also recorded: no longer active”.

Values taken from US20080038290A1, “Cosmetic slimming composition containing an extract of biomass of the alga neochloris oleoabundans” (LVMH RECHERCHE, priority 2006, published 2008).
